Measured values reported in patent US7138361B2, “Herbicidal heterocycles” (E. I. du Pont de Nemours and Company, priority 2000, dated 2006).

Tests used:
Assay type in all cases: in vivo
[1] = tested on: barnyardgrass (Echinochloa crus-galli); test: Test B flooded paddy test; details: Rate 1000 g/ha, scale of 0 to 100 where 0 is no effect and 100 is complete control, visually evaluated after 13 to 15 days
How it was run: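 Treatment: formulated chemical applied to flooded paddy plants at 2-leaf stage. Hold: greenhouse, 13–15 days. Scoring: visual comparison to controls, 0 (no effect) to 100 (complete control).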

[2] = tested on: smallflower flatsedge (Cyperus difformis); test: Test C flooded paddy test; details: for Flatsedge plant response rating: Flooded Paddy, scale 0 to 100, 0 no effect, 100 complete control; for Plant response rating, Flatsedge: scale 0 to 100 (0 no effect, 100 complete control)
How it was run: (§1)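 2-leaf-stage plants, flooded paddy; treated; greenhouse 12–14 days; compared with controls by eye; rated 0–100 (0 none, 100 complete control).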

rice (Oryza saliva) = test: Test C flooded paddy test; details: for Rice plant response rating: Flooded Paddy, scale 0 to 100, 0 no effect, 100 complete control; for Plant response rating, Rice: scale 0 to 100 (0 no effect, 100 complete control)
How it was run: as §1

[3] = flooded paddy test, Rate 62 g/ha
[4] = flooded paddy test, Rate 125 g/ha
[5] = flooded paddy test, Rate 250 g/ha
[6] = flooded paddy test, Rate 62 g/ha, visually evaluated after 12 to 14 days, 0 = no effect, 100 = complete control

SMILES	Plant response rating, Barnyardgrass [1]	Flatsedge plant response rating ([2]; Rate 250 g/ha)	Flatsedge plant response rating ([2]; Rate 500 g/ha)	Plant response rating, Flatsedge [2, 3]	Plant response rating, Flatsedge [2, 4]	Rice plant response rating (rice (Oryza saliva); Rate 250 g/ha)	Rice plant response rating (rice (Oryza saliva); Rate 500 g/ha)	Plant response rating, Rice (rice (Oryza saliva); [3])	Plant response rating, Rice (rice (Oryza saliva); [4])	Plant response rating, Flatsedge [2, 5]	Plant response rating (scale 0 to 100), Flatsedge [2, 6]	Plant response rating, Rice (rice (Oryza saliva); [5])	Plant response rating (scale 0 to 100), Rice (rice (Oryza saliva); [6])
CC(C)(C)c1ccn(C2CCN(c3cccc(C(F)(F)F)c3)C2=S)n1 (stereo not drawn) [Compound 22]	100	100	100	100	100	20	40	20	20				
Cc1cc(C)nc(N2CCC(n3ccc(C(C)(C)C)n3)C2=O)c1 (stereo not drawn) [Compound 138]	100		100		90		70		0	100	90	30	0
